US9593155B2, “Oxyntomodulin analogs” (priority 2009, dated 2017)
Read-outs that look alike come from different tables or passages of the source. *1 amine or outer side, *2 acyl side, *3 side chain or, on linkers, in order; H or OH if unused. Where a SMILES comes first, the peptide text is derived from it. Bridges are numbered along the chain shown (N, C = ends). Where no end group is shown, it is not given here. Side-chain parts run from the residue outwards. [ ]: non-standard residue; d: D form. The star is where a group is joined. ξ: configuration not given here. C10 = S-[42-(cholest-5-en-3-yloxy)-2,42-dioxo-6,9,12,15,18,21,24,27,30,33,36,39-dodecaoxa-3-azadotetracont-1-yl]-L-cysteine, Cys(oxa12-cholesterol), CC(C)CCC[C@@H](C)[C@H]1CC[C@H]2[C@@H]3CC=C4C[C@@H](OC(=O)CCOCCOCCOCCOCCOCCOCCOCCOCCOCCOCCOCCOCCNC(=O)CSC[C@H](N[*:1])C(=O)[*:2])CC[C@]4(C)[C@H]3CC[C@]12C; X1 = CC(C)CCCC(C)[C@H]1CCC2C3CC=C4C[C@@H](OC(=O)CCOCCOCCOCCOCCOCCOCCOCCOCCOCCOCCOCCOCCNC(=O)C*)CC[C@]4(C)C3CC[C@@]21C; CH2CO2(3ξ-cholesteryl) = CC(C)CCC[C@@H](C)[C@H]1CC[C@H]2[C@@H]3CC=C4CC(OC(=O)C*)CC[C@]4(C)[C@H]3CC[C@]12C; γGlu = O=C(O)[C@H](CCC(=O)[*:2])N[*:1]; mPEG2 40kDa = C3 = Cys(mPEG)2 40 kDa; Palmitoyl = CCCCCCCCCCCCCCCC(=O)*; Met(O) = CS(=O)CC[C@H](N)C(=O)O; Nle = CCCC[C@H](N)C(=O)O; Ac4c = NC1(C(=O)O)CCC1; Aib = CC(C)(N)C(=O)O

Columns and labels:
hGCGR = hGCGR (Homo sapiens, UniProt P47871); test: fluorescence cell based cAMP assay, CHO cells stably expressing GCGR; conditions: for GCGR + 10% plasma (fold shift): EC50 with 10% plasma vs without; for Receptor Selectivity: GLP-1R/GCGR, Table 6
Chain of hGCGR (P47871 26-477): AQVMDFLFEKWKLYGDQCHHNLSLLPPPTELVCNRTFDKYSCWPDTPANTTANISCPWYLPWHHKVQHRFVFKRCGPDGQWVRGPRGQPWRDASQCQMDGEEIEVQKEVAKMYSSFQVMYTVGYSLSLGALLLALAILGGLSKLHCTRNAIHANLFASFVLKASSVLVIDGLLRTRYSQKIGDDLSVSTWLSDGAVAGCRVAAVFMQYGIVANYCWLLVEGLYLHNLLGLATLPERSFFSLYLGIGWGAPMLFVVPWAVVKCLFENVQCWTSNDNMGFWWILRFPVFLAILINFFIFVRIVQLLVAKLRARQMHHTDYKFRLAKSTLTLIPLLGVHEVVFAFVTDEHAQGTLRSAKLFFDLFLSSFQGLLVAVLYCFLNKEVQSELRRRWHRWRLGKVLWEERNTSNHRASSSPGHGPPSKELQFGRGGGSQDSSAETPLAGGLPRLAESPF
Description: We initially screened peptides in fluorescence cell based assays that measure production of cyclic-AMP (cAMP), using CHO cell lines stably expressing either recombinant human GLP-1R or human GCGR. Determination of Mouse and human GLP-1R and GCGR Agonist Activity was essentially as follows. CHO cells stably expressing mouse or human GLP-1R or GCGR were grown in Iscove's Modified Dulbecco's Medium (IMDM), 10% FBS, 1 mM L-glutamine, penicillin-streptomycin (100 μ/mL) and 750 μg G418/mL for three-four days before harvesting using Enzymefree Dissociation Media (EFDM, Specialty Media). […] The assay was terminated with the addition of the LANCE kit Detection buffer as per the manufacturer's instructions. The plates were held an additional hour at room temperature, then increasing cAMP levels were detected by a decrease in TR-FRET signal as measured in an EnVision counter (PerkinElmer) in comparison to a standard curve of cAMP as per the manufacturer's instructions. Data were analyzed using the linear and nonlinear regression analysis software, GraphPad Prism.
The in vitro potencies shown in Table 10 or Table 11 were determined from the results of assays that were similar to either the cell-based cAMP assays described herein above (Table 10) or the cell-based cAMP assays described in International Published Application No. WO2008101017, which is incorporated herein in its entirety, in particular the cell-based cAMP assays described therein (Table 11).

[1] = pI of the peptide analogs

pI ([1]; Table 10)	Compound	pI [1]	also measured
5.5	CCCCCCCCCCCCCCCC(=O)N[C@@H](CCC(=O)N[C@@H](CCC(=O)NCCCC[C@H](NC(=O)[C@H](CC(=O)O)NC(=O)[C@H](CO)NC(=O)[C@@H](NC(=O)[C@H](Cc1ccccc1)NC(=O)[C@@H](NC(=O)CNC(=O)[C@H](CCC(N)=O)NC(=O)C1(NC(=O)[C@@H](N)Cc2c[nH]cn2)CCC1)[C@@H](C)O)[C@@H](C)O)C(=O)N[C@@H](CO)C(=O)N[C@@H](CCCCN)C(=O)N[C@@H](Cc1ccc(O)cc1)C(=O)N[C@@H](CC(C)C)C(=O)N[C@@H](CC(=O)O)C(=O)N[C@@H](CCC(=O)O)C(=O)N[C@@H](CCCNC(=N)N)C(=O)N[C@@H](CCCNC(=N)N)C(=O)N[C@@H](C)C(=O)N[C@@H](CCC(N)=O)C(=O)N[C@@H](CC(=O)O)C(=O)N[C@@H](Cc1ccccc1)C(=O)N[C@H](C(=O)N[C@@H](CCC(N)=O)C(=O)N[C@@H](Cc1c[nH]c2ccccc12)C(=O)N[C@@H](CC(C)C)C(=O)N[C@@H](CCSC)C(=O)N[C@@H](CC(N)=O)C(=O)N[C@H](C(=O)N[C@@H](CCCCN)C(N)=O)[C@@H](C)O)C(C)C)C(=O)O)C(=O)O [OXM417] (H-H[Ac4c]QGTFTSDK([γGlu-γGlu-Palmitoyl])SKYLDERRAQDFVQWLMNTK-NH2)	–	EC50 (hGCGR; hGCGR + 20% plasma EC50, Table 10, 20% plasma): 400 pM
5.5	CCCCCCCCCCCCCCCC(=O)N[C@@H](CCC(=O)N[C@@H](CCC(=O)NCCCC[C@H](NC(=O)[C@H](CC(=O)O)NC(=O)[C@H](CO)NC(=O)[C@@H](NC(=O)[C@H](Cc1ccccc1)NC(=O)[C@@H](NC(=O)CNC(=O)[C@H](CCC(N)=O)NC(=O)C(C)(C)NC(=O)[C@@H](N)Cc1c[nH]cn1)[C@@H](C)O)[C@@H](C)O)C(=O)N[C@@H](CO)C(=O)N[C@@H](CCCCN)C(=O)N[C@@H](Cc1ccc(O)cc1)C(=O)N[C@@H](CC(C)C)C(=O)N[C@@H](CC(=O)O)C(=O)N[C@@H](CCC(=O)O)C(=O)N[C@@H](CCCNC(=N)N)C(=O)N[C@@H](CCCNC(=N)N)C(=O)N[C@@H](C)C(=O)N[C@@H](CCC(N)=O)C(=O)N[C@@H](CC(=O)O)C(=O)N[C@@H](Cc1ccccc1)C(=O)N[C@H](C(=O)N[C@@H](CCC(N)=O)C(=O)N[C@@H](Cc1c[nH]c2ccccc12)C(=O)N[C@@H](CC(C)C)C(=O)N[C@@H](CCSC)C(=O)N[C@@H](CC(N)=O)C(=O)N[C@H](C(=O)N[C@@H](CCCCN)C(N)=O)[C@@H](C)O)C(C)C)C(=O)O)C(=O)O [OXM416] (H-H[Aib]QGTFTSDK([γGlu-γGlu-Palmitoyl])SKYLDERRAQDFVQWLMNTK-NH2)	–	–
5.4	CCCCCCCCCCCCCCCC(=O)N[C@@H](CCC(=O)NCCCC[C@H](NC(=O)[C@H](CC(=O)O)NC(=O)[C@H](CO)NC(=O)[C@@H](NC(=O)[C@H](Cc1ccccc1)NC(=O)[C@@H](NC(=O)CNC(=O)[C@H](CCC(N)=O)NC(=O)[C@@H](CO)NC(=O)[C@@H](N)Cc1c[nH]cn1)[C@@H](C)O)[C@@H](C)O)C(=O)N[C@@H](CO)C(=O)N[C@@H](CCCCN)C(=O)N[C@@H](Cc1ccc(O)cc1)C(=O)N[C@@H](CC(C)C)C(=O)N[C@@H](CC(=O)O)C(=O)N[C@@H](CCC(=O)O)C(=O)N[C@@H](CCCNC(=N)N)C(=O)N[C@@H](CCCNC(=N)N)C(=O)N[C@@H](C)C(=O)N[C@@H](CCC(N)=O)C(=O)N[C@@H](CC(=O)O)C(=O)N[C@@H](Cc1ccccc1)C(=O)N[C@H](C(=O)N[C@@H](CCC(N)=O)C(=O)N[C@@H](Cc1c[nH]c2ccccc12)C(=O)N[C@@H](CC(C)C)C(=O)N[C@@H](CCSC)C(=O)N[C@@H](CC(N)=O)C(=O)N[C@H](C(=O)N[C@@H](CCCCN)C(=O)N[C@@H](CCC(N)=O)C(=O)O)[C@@H](C)O)C(C)C)C(=O)O [OXM414] (H-H[dS]QGTFTSDK([γGlu-Palmitoyl])SKYLDERRAQDFVQWLMNTKQ-OH; N-terminus and C-terminus assumed)	–	–

The remaining lines, values behind:

Compound	pI ([1]; Table 10)	pI [1]	also measured
CSCC[C@H](NC(=O)[C@H](CC(C)C)NC(=O)[C@H](Cc1c[nH]c2ccccc12)NC(=O)[C@H](CCC(N)=O)NC(=O)[C@@H](NC(=O)[C@H](Cc1ccccc1)NC(=O)[C@H](CC(=O)O)NC(=O)[C@@H]1CCCCNC(=O)CC[C@H](NC(=O)[C@H](CC(=O)O)NC(=O)[C@H](CC(C)C)NC(=O)[C@H](Cc2ccc(O)cc2)NC(=O)[C@H](CCCCN)NC(=O)[C@H](CO)NC(=O)[C@H](Cc2ccc(O)cc2)NC(=O)[C@H](CC(=O)O)NC(=O)[C@H](CO)NC(=O)[C@@H](NC(=O)[C@H](Cc2ccccc2)NC(=O)[C@@H](NC(=O)CNC(=O)[C@H](CCC(N)=O)NC(=O)[C@@H](CO)NC(=O)[C@@H](N)Cc2c[nH]cn2)[C@@H](C)O)[C@@H](C)O)C(=O)N[C@@H](CCCNC(=N)N)C(=O)N[C@@H](CCCNC(=N)N)C(=O)N[C@@H](C)C(=O)N1)C(C)C)C(=O)N[C@@H](CC(N)=O)C(=O)N[C@H](C(=O)N[C@@H](CCCCN)C(=O)N[C@@H](CCC(=O)N[C@@H](CCC(=O)N[C@@H](CSCC(=O)NCCOCCOCCOCCOCCOCCOCCOCCOCCOCCOCCOCCOCCC(=O)O[C@H]1CC[C@@]2(C)C(=CCC3C2CC[C@@]2(C)C3CC[C@@H]2C(C)CCCC(C)C)C1)C(=O)O)C(=O)O)C(=O)O)[C@@H](C)O (stereo partly drawn) [OXM392] (H-H[dS]QGTFTSDYSKYLDERRAKDFVQWLMNTK[γGlu][γGlu]C(X1)-OH; lactam 16-20)	5.4	about 5.4	–
CCCC[C@H](NC(=O)[C@H](CC(C)C)NC(=O)[C@H](Cc1c[nH]c2ccccc12)NC(=O)[C@H](CCC(N)=O)NC(=O)[C@@H](NC(=O)[C@H](Cc1ccccc1)NC(=O)[C@H](CC(=O)O)NC(=O)[C@H](CCC(N)=O)NC(=O)[C@H](C)NC(=O)[C@H](CCCNC(=N)N)NC(=O)[C@H](CCCNC(=N)N)NC(=O)[C@H](CO)NC(=O)[C@H](CC(=O)O)NC(=O)[C@H](CC(C)C)NC(=O)[C@H](Cc1ccc(O)cc1)NC(=O)[C@H](CCCCN)NC(=O)[C@H](CO)NC(=O)[C@H](Cc1ccc(O)cc1)NC(=O)[C@H](CC(=O)O)NC(=O)[C@H](CO)NC(=O)[C@@H](NC(=O)[C@H](Cc1ccccc1)NC(=O)[C@@H](NC(=O)CNC(=O)[C@H](CCC(N)=O)NC(=O)C(C)(C)NC(=O)[C@@H](N)Cc1c[nH]cn1)[C@@H](C)O)[C@@H](C)O)C(C)C)C(=O)N[C@@H](CC(N)=O)C(=O)N[C@H](C(=O)N[C@@H](CCCCN)C(=O)N[C@@H](CCCNC(=N)N)C(=O)N[C@@H](CC(N)=O)C(=O)N[C@@H](CCCNC(=N)N)C(=O)N[C@@H](CC(N)=O)C(=O)N[C@@H](CC(N)=O)C(=O)N[C@H](C(=O)N[C@@H](C)C(=O)N[C@@H](CSCC(=O)OC1CC[C@@]2(C)C(=CC[C@H]3[C@@H]4CC[C@H]([C@H](C)CCCC(C)C)[C@@]4(C)CC[C@@H]32)C1)C(N)=O)[C@@H](C)CC)[C@@H](C)O (stereo partly drawn) [OXM212] (H-H[Aib]QGTFTSDYSKYLDSRRAQDFVQWL[Nle]NTKRNRNNIAC(CH2CO2(3ξ-cholesteryl))-NH2; N-terminus assumed)	–	–	GCGR + 10% plasma (fold shift) (hGCGR): (92x) fold
HαQGTFTSDYC3KYLDSRRAQDFVQWLmNTKRNRNNIA-CONH2 (H[Aib]QGTFTSDYC(mPEG2 40kDa)KYLDSRRAQDFVQWL[Met(O)]NTKRNRNNIA-NH2; not fully specified; printed as HαQGTFTSDYC3KYLDSRRAQDFVQWLmNTKRNRNNIA-CONH2) [OXM121]	–	–	Receptor Selectivity (hGCGR): 0/0
H-Acb-QGTFTSDYSKYLDERRAKDFVQWLMNTK-γE-γE-C10-COOH (lactam bridge between E and K) (H-H[Ac4c]QGTFTSDYSKYLDERRAKDFVQWLMNTK[γGlu][γGlu][C10]-OH; lactam 16-20) [OXM398]	–	about 5.4	–
HsQGTFTSDYSSYLDSRRAQDFVQWLMNTK-γE-C4-COOH [OXM355]	–	about 5	–
CC[C@H](C)[C@H](NC(=O)[C@H](CC(N)=O)NC(=O)[C@H](CC(N)=O)NC(=O)[C@H](CCCNC(=N)N)NC(=O)[C@H](CC(N)=O)NC(=O)[C@H](CCCNC(=N)N)NC(=O)[C@H](CCCCN)NC(=O)[C@@H](NC(=O)[C@H](CC(N)=O)NC(=O)[C@H](CCOC)NC(=O)[C@H](CC(C)C)NC(=O)[C@H](Cc1c[nH]c2ccccc12)NC(=O)[C@H](CCC(N)=O)NC(=O)[C@@H](NC(=O)[C@H](Cc1ccccc1)NC(=O)[C@H](CC(=O)O)NC(=O)[C@H](CCC(N)=O)NC(=O)[C@H](C)NC(=O)[C@H](CCCNC(=N)N)NC(=O)[C@H](CCCNC(=N)N)NC(=O)[C@H](CO)NC(=O)[C@H](CC(=O)O)NC(=O)[C@H](CC(C)C)NC(=O)[C@H](Cc1ccc(O)cc1)NC(=O)[C@H](CCCCN)NC(=O)[C@H](CO)NC(=O)[C@H](Cc1ccc(O)cc1)NC(=O)[C@H](CC(=O)O)NC(=O)[C@H](CO)NC(=O)[C@@H](NC(=O)[C@H](Cc1ccccc1)NC(=O)[C@@H](NC(=O)CNC(=O)[C@H](CCC(N)=O)NC(=O)C(C)(C)NC(=O)[C@@H](N)Cc1c[nH]cn1)[C@@H](C)O)[C@@H](C)O)C(C)C)[C@@H](C)O)C(=O)N[C@@H](C)C(=O)N[C@@H](CSCC(=O)OC1CC[C@@]2(C)C(=CC[C@H]3[C@@H]4CC[C@H]([C@H](C)CCCC(C)C)[C@@]4(C)CC[C@@H]32)C1)C(N)=O (stereo partly drawn) [OXM213]	–	–	GCGR + 10% plasma (fold shift) (hGCGR): (44x) fold
HαQGTFTSDYSC3YLDSRRAQDFVQWLmNTKRNRNNIA-CONH2 (H[Aib]QGTFTSDYSC(mPEG2 40kDa)YLDSRRAQDFVQWL[Met(O)]NTKRNRNNIA-NH2; not fully specified; printed as HαQGTFTSDYSC3YLDSRRAQDFVQWLmNTKRNRNNIA-CONH2) [OXM124]	–	–	Receptor Selectivity (hGCGR): 0/0
